# Test results as given in paper PMC7979765, “trans-Translation inhibitors bind to a novel site on the ribosome and clear Neisseria gonorrhoeae in vivo” (Nature Communications, 2021).
# Where “and” joins values, the source holds several entries; their conditions need not be identical. Identical values can stand only once. Entries after “also recorded” stand apart in the source; their conditions may differ. Like-named read-outs stand apart in the source and are kept apart here.
# How the values were obtained:
# Opiate Delta1 (OP1, DOP) = target: T1, Opiate Delta1 (OP1, DOP) (Homo sapiens, UniProt P41143); assay: Receptor Profiling 260130; type: binding
# T1 construct: purchased Eurofins Discovery Services (Panlabs safety panel)
# Protocol: (§1) Several in vitro selectivity assays were performed at Eurofins Discovery Services using established methods and controls that behaved as expected (Supplementary Tables 5 and 6). […] For receptor panel profiling, MBX-4132 was evaluated at 10 μM and activity of >50% (agonist or antagonist; note that negative % inhibition indicates agonism) was scored as active.
# [1] = target: T2, Transporter, Serotonin (5-Hyroxytryptamine) (SERT) (Homo sapiens, UniProt P31645); assay: Receptor Profiling 274030; type: binding
# T2 construct: purchased Eurofins Discovery Services 274030
# Protocol: as §1
# Dopamine D1 = target: T3, Dopamine D1 (Homo sapiens, UniProt P21728); assay: Receptor Profiling 219500; type: binding
# T3 construct: purchased Eurofins Discovery Services (Panlabs safety panel)
# T3 sequence (P21728 whole entry): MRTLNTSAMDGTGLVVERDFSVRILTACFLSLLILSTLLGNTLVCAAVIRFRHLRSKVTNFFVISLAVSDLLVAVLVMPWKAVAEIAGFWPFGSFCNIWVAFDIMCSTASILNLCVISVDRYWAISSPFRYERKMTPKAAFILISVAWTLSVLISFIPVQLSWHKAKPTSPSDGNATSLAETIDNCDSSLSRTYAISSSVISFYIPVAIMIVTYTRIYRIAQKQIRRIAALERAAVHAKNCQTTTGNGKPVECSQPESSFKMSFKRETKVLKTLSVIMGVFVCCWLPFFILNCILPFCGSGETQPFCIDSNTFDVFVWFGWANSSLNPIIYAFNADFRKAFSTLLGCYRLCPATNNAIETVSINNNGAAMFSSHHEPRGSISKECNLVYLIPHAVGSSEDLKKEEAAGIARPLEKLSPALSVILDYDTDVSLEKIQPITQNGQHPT
# Protocol: as §1
# Glucocorticoid = target: T4, Glucocorticoid (Homo sapiens, UniProt P04150); assay: Receptor Profiling 232030; type: binding
# T4 construct: purchased Eurofins Discovery Services (Panlabs safety panel)
# Protocol: as §1
# Vasopressin V1A = target: T5, Vasopressin V1A (Homo sapiens, UniProt P37288); assay: Receptor Profiling 287530; type: binding
# T5 construct: purchased Eurofins Discovery Services 287530
# Protocol: as §1
# Adrenergic β2 = target: T6, Adrenergic β2 (Homo sapiens, UniProt P07550); assay: Receptor Profiling 204110; type: binding
# T6 construct: purchased Eurofins Discovery Services (Panlabs safety panel)
# T6 sequence (P07550 whole entry): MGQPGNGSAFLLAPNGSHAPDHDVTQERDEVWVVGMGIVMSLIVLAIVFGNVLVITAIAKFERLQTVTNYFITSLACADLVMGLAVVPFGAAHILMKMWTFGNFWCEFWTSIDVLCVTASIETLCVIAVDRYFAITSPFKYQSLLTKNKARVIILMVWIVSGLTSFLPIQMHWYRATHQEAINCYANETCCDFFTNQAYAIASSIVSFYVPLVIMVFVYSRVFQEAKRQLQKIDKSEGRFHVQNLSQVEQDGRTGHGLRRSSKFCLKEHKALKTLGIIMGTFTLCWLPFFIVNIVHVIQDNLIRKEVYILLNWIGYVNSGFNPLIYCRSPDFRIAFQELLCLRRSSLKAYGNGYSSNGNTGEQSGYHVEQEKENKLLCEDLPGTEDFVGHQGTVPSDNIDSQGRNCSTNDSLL
# Protocol: as §1
# Phosphodiesterase PDE4D2 = target: T7, Phosphodiesterase PDE4D2 (Homo sapiens, UniProt Q08499); assay: Receptor Profiling 154420; type: biochemical
# T7 construct: Eurofins Discovery Services (contract assay) 154420
# Protocol: as §1
# hERG potassium channel = target: T8, hERG potassium channel (Homo sapiens, UniProt Q12809); assay: Receptor Profiling 265910; type: binding; conditions: probe [3H]dofetilide
# T8 construct: purchased Eurofins Discovery Services (Panlabs safety panel)
# T8 sequence (Q12809 whole entry): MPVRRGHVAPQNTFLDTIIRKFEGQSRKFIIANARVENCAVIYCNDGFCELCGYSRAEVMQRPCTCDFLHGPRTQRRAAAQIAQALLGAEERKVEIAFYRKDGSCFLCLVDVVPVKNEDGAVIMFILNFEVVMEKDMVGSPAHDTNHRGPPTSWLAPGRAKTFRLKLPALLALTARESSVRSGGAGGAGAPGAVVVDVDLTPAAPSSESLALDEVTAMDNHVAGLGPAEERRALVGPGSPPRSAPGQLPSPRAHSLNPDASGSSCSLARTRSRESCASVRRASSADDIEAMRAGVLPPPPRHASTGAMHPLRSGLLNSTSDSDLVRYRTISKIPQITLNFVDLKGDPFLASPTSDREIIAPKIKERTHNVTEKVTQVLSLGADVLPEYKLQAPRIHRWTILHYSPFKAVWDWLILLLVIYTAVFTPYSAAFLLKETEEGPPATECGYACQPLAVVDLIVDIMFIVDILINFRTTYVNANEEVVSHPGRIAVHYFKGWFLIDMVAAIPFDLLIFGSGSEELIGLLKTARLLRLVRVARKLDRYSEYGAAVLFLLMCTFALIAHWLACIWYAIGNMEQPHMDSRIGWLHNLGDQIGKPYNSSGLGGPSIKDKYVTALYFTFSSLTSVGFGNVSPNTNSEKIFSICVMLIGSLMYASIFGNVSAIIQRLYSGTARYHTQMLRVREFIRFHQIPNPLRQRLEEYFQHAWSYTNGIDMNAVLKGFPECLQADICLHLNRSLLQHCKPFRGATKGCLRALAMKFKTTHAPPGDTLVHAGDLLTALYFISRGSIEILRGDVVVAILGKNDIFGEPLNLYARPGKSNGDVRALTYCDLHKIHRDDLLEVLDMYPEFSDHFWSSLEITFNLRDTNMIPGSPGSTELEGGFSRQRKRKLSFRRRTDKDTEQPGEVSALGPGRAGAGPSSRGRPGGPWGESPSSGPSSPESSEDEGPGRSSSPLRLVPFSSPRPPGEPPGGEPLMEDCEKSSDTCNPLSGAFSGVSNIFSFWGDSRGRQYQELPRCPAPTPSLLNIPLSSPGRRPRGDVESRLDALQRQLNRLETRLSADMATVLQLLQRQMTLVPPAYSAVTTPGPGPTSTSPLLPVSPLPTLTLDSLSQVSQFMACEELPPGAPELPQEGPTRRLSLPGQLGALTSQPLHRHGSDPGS
# Protocol: as §1
# Monoamine Oxidase MAO-A = target: T9, Monoamine Oxidase MAO-A (Homo sapiens, UniProt P21397); assay: Receptor Profiling 140010; type: biochemical; conditions: negative % inhibition indicates agonism
# T9 construct: Eurofins Discovery Services (contract assay) 140010
# T9 sequence (P21397 whole entry): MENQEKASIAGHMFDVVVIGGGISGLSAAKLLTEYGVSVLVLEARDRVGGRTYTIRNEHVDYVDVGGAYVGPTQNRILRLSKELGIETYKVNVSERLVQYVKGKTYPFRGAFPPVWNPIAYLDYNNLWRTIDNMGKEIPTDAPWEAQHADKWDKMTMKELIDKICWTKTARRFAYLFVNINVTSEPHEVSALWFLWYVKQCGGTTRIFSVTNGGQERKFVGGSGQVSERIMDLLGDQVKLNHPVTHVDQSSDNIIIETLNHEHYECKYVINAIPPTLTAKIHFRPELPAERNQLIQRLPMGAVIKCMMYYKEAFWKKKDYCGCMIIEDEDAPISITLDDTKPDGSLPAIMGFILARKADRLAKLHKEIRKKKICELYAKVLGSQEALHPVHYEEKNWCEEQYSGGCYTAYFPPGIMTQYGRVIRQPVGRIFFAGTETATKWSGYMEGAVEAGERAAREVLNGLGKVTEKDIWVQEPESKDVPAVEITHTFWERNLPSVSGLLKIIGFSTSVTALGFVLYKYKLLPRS
# Protocol: as §1
# [2] = Liver microsome stability, dog; type: in vitro ADME; conditions: for half-life: dog, liver microsomes
# Protocol: To examine potential for first-pass metabolism of analogs in the liver, the stability of analogs in the presence of liver microsome preparations (Eurofins Discovery for human, dog and rat; Xenotech for mouse) was measured using the method of Kuhnz, et al.[50]. for murine studies and Oback for the dog, human and rat studies. The amount of parent compound remaining after incubation with microsomes in the presence of NADPH over a 30 min time range was measured using a reverse-phase liquid chromatography/mass spectroscopy method that was customized for each compound. Half-lives were calculated using linear regression analysis of several time points.
# Adrenergic α1A = target: T10, Adrenergic α1A (Homo sapiens, UniProt P35348); assay: Receptor Profiling 203110; type: binding
# T10 construct: purchased Eurofins Discovery Services (Panlabs safety panel)
# T10 sequence (P35348 whole entry): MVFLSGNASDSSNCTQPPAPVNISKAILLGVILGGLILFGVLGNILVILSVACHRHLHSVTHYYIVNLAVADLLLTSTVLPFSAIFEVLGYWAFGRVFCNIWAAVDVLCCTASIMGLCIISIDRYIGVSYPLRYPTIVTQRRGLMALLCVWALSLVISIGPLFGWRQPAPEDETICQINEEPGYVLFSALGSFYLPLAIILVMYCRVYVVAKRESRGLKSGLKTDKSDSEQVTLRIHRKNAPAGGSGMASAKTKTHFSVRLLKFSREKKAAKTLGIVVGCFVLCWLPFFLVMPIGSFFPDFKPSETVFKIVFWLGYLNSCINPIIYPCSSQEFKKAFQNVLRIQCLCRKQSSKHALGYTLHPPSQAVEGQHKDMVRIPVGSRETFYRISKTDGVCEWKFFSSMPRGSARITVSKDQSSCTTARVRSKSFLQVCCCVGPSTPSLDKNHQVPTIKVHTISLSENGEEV
# Protocol: as §1
# Glutamate, NMDA, Agonism = assay: Receptor Profiling 232810; type: binding, rat; conditions: 10 μM
# Protocol: as §1
# Cycloogenase COX-2 = target: T11, Cycloogenase COX-2 (Homo sapiens, UniProt P35354); assay: Receptor Profiling 118030; type: biochemical
# T11 construct: Eurofins Discovery Services (contract assay) 118030
# T11 sequence (P35354 18-604): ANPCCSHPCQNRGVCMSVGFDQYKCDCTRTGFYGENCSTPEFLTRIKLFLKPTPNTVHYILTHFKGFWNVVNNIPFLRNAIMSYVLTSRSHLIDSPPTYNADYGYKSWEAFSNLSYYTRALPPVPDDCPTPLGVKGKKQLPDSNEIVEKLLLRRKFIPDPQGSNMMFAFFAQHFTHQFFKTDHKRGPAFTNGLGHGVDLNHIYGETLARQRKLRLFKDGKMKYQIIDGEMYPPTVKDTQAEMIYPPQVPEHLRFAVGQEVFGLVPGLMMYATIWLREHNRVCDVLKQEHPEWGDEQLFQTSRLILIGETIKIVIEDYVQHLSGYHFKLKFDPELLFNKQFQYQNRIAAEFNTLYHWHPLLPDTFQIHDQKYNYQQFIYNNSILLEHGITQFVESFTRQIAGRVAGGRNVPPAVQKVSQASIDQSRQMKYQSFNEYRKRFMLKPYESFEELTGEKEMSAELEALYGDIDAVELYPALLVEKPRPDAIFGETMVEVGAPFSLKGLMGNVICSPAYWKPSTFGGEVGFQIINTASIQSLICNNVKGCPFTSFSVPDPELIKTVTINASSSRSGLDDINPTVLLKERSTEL
# Protocol: as §1
# Muscarinic M2 = target: T12, Muscarinic M2 (Homo sapiens, UniProt P08172); assay: Receptor Profiling 252710; type: binding
# T12 construct: purchased Eurofins Discovery Services (Panlabs safety panel)
# Protocol: as §1
# Haemophilus influenzae = assay: MIC, microbroth dilution; type: cell-based
# [3] = Mitochondrial toxicity assay, glucose vs galactose; type: cell-based; conditions: human, HepG2; for viability at 24 h, 100 µM: Conc. (μM) 1.00E-04; for viability at 24 h, 3 µM: Conc. (μM) 3.00E-06
# Protocol: (§2) Mitochondrial toxicity assay — HepG2 cells (ATCC) were seeded and cultured in media containing either glucose or galactose overnight. Test compounds were added at 8 concentrations ([…] from 100 µM to 30 nM) and incubated with the cells for 24 h. Cell viability was measured by the alamarBlue method. The data in Supplementary Table 7 are inconsistent with MBX-4132 disrupting mitochondrial metabolic processes. Assays were performed at Eurofins Cerep Panlabs.
# HepG2 cells = assay: Mitochondrial toxicity assay, glucose vs galactose; type: cell-based; conditions: for % viability: HepG2, replicates
# Protocol: as §2
# [4] = target: T13, Serotonin (5-hydroxytryptamine) 5-HT1B (Homo sapiens, UniProt P28222); assay: Receptor Profiling 271230; type: binding
# T13 construct: purchased Eurofins Discovery Services (Panlabs safety panel)
# Protocol: as §1
# CYP2B6 = target: T14, CYP2B6 (Homo sapiens, UniProt P20813); assay: Cyp inhibition assay 4877; type: in vitro ADME; conditions: catalog reference 4877, read-out: pIC50 (µM) reported (converted)
# T14 construct: Eurofins Discovery Services (contract assay) 4877
# T14 sequence (P20813 whole entry): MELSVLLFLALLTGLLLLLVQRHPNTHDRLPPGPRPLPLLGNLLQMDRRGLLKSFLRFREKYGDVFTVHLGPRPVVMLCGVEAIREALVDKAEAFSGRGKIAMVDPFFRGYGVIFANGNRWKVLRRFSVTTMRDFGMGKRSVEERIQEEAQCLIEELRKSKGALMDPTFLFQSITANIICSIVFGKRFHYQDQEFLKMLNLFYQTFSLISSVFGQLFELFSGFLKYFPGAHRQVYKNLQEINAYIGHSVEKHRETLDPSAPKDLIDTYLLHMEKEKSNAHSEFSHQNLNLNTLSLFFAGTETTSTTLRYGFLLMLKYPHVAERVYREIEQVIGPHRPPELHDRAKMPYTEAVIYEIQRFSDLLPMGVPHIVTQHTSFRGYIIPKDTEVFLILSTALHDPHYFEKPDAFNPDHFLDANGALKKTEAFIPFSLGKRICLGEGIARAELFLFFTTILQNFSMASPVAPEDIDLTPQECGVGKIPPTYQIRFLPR
# Protocol: as §1
# [5] = Serum shift of MIC (+/- 10% fetal bovine serum)
# Opiate Kappa (OP2, KOP) = target: T15, Opiate Kappa (OP2, KOP) (Homo sapiens, UniProt P41145); assay: Receptor Profiling 260210; type: binding
# T15 construct: purchased Eurofins Discovery Services (Panlabs safety panel)
# T15 sequence (P41145 whole entry): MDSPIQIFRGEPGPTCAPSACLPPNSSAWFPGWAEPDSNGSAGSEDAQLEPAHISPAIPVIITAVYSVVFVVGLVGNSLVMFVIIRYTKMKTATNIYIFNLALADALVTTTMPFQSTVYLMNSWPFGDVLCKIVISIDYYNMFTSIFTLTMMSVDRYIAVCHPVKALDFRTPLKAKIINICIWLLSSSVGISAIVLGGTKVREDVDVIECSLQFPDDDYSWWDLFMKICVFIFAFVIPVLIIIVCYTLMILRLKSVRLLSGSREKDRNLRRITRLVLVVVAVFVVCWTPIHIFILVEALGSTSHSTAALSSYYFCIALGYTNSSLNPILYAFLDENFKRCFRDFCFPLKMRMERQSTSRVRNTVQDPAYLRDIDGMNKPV
# Protocol: as §1
# translation = assay: In vitro translation assay (full-length nano-luciferase gene); type: biochemical, Escherichia coli; conditions: for % of translation activity: 0 uM = 100
# Adenosine A2A = target: T16, Adenosine A2A (Homo sapiens, UniProt P29274); assay: Receptor Profiling 200610; type: binding
# T16 construct: purchased Eurofins Discovery Services (Panlabs safety panel)
# T16 sequence (P29274 whole entry): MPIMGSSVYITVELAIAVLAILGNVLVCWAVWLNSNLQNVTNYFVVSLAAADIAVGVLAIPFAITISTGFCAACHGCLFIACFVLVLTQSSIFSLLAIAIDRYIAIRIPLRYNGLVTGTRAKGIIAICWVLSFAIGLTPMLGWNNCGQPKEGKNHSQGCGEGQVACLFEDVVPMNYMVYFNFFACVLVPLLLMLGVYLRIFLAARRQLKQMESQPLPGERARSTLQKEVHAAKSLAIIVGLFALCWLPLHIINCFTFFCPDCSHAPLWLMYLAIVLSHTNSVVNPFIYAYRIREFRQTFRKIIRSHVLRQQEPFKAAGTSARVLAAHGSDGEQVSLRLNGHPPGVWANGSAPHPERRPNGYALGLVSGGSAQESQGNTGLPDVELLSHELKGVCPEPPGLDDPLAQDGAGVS
# Protocol: as §1
# in vitro = conditions: mouse, serum
# [6] = HepG2 cells, Galactcose, read-out: Mean % viability
# [7] = HepG2 cells, Galactcose, replicates, read-out: % viability
# [8] = HepG2 cells, Glucose, read-out: Mean % viability
# [9] = HepG2 cells, Glucose, replicates, read-out: % viability
smiles,measurement,setting,value
O=C(Nc1nnc(-c2ccc(F)cc2)o1)N1CCc2ccccc2C1 [MBX-4132],inhibition at 10 µM,"Opiate Delta1 (OP1, DOP)",5%
same,inhibition at 10 µM,[1],-10%
same,inhibition at 10 µM,Dopamine D1,26%
same,inhibition at 10 µM,Glucocorticoid,-2%
same,inhibition at 10 µM,Vasopressin V1A,-4%
same,inhibition at 10 µM,Adrenergic β2,35%
same,inhibition at 10 µM,Phosphodiesterase PDE4D2,3%
same,inhibition at 10 µM,hERG potassium channel,27%
same,inhibition at 10 µM,Monoamine Oxidase MAO-A,-108%
same,"Microsomal stability (t½, min) Dog","[2]; Replicate 1/2, Eurofins",>>60 min
same,half-life,"[2]; Average Value, Eurofins, read-out: Microsomal stability (t½, min) Dog",> 60 min
same,half-life,"[2]; Replicate 1/2, Eurofins, read-out: Microsomal stability (t½, min) Dog",> 60 min
same,half-life,"[2]; Reported value, Eurofins, read-out: Microsomal stability (t½, min) Dog",> 120 min
same,half-life,[2]; read-out: Microsomal Stability (t1/2; min) Dog,> 120 min
same,inhibition at 10 µM,Adrenergic α1A,6%
same,% inhibition,"Glutamate, NMDA, Agonism",8%
same,inhibition at 10 µM,Cycloogenase COX-2,10%
same,inhibition at 10 µM,Muscarinic M2,7%
same,MIC,"Haemophilus influenzae; Haemophilus influenzae ATCC 35056, replicates",17 µg/mL
same,MIC,"Haemophilus influenzae; Haemophilus influenzae, ATCC35056, Haemophilus influenzae ATCC 35056, replicates, read-out: MIC",17 µg/mL
same,MIC,"Haemophilus influenzae; Haemophilus influenzae, ATCC35056, strain ATCC 35056, read-out: MIC",17.5 µg/mL
same,"viability at 24 h, 1e-05 μM","[3]; Glucose, Conc. (μM) 1.00E-05, replicates",108%
same,"viability at 24 h, 100 µM",[3]; [6],64%
same,"viability at 24 h, 100 µM",[3]; [7],65.3%
same,"viability at 24 h, 10 µM","[3]; HepG2 cells, Galactcose, Conc. (μM) 1.00E-05",95.4%
same,"viability at 24 h, 3 µM",[3]; [6],94.1%
same,"viability at 24 h, 3 µM",[3]; [7],93.9%
same,"viability at 24 h, 30 µM","[3]; HepG2 cells, Galactose, Conc. (μM) 3.00E-05, 24 h",96.8%
same,"viability at 24 h, 100 µM",[3]; [8],81.9%
same,"viability at 24 h, 100 µM",[3]; [9],78.3%
same,"viability at 24 h, 10 µM","[3]; HepG2 cells, Glucose, Conc. (μM) 1.00E-05",108%
same,"viability at 24 h, 3 µM",[3]; [8],110%
same,"viability at 24 h, 3 µM",[3]; [9],116%
same,% viability,"HepG2 cells; Galactcose, Conc. (μM) 1.00E-04",62.7%
same,% viability,"HepG2 cells; Galactcose, Conc. (μM) 3.00E-05",99.1%
same,% viability,"HepG2 cells; Galactcose, Conc. (μM) 3.00E-06",94.2%
same,% viability,"HepG2 cells; Glucose, Conc. (μM) 1.00E-04",85.6%
same,% viability,"HepG2 cells; Glucose, Conc. (μM) 1.00E-05",107.5%
same,% viability,"HepG2 cells; Glucose, Conc. (μM) 3.00E-05",106.5%
same,% viability,"HepG2 cells; Glucose, Conc. (μM) 3.00E-06",103.0%
same,differential toxicity glucose vs galactose (in words),HepG2 cells; HepG2 cells,did not induce differential toxicity
same,inhibition at 10 µM,[4],21%
same,IC50,CYP2B6,> 100 µM
same,Serum shift (fold),[5]; Average Value,16 fold
same,serum Shift,[5]; Ratio of MIC +/- 10% fetal bovine serum added,16
same,Serum shift (fold),[5]; Replicate 1/2,16 fold
same,inhibition at 10 µM,"Opiate Kappa (OP2, KOP)",13%
same,% of translation activity,translation; [MBX-4132] 0.01 uM,94% and 99%
same,% of translation activity,translation; [MBX-4132] 0.1 uM,98% and 102%
same,% of translation activity,translation; [MBX-4132] 1 uM,92% and 103%
same,% of translation activity,translation; [MBX-4132] 2 uM,86% and 97%
same,% of translation activity,translation; [MBX-4132] 10 uM,106% and 98%
same,% of translation activity,translation; [MBX-4132] 20 uM,97% and 96%
same,% of translation activity,translation; [MBX-4132] 50 uM,93% and 99%
same,inhibition of translation in vitro (in words),translation; full-length nano-luciferase gene control,did not inhibit translation; also recorded: does not inhibit translation
same,inhibition at 10 µM,Adenosine A2A,42%
same,remaining at 1 h,in vitro; Murine serum stability (% remaining after 1 hr),109%
same,remaining at 1 h,"in vitro; Murine serum stability (% remaining after 1 hr), Replicate 1/2, MBX",92.6%
same,remaining at 1 h,"in vitro; Murine serum stability (% remaining after 1 hr), Reported value, MBX",> 99.8%
same,remaining at 1 h,"in vitro; serum stability, % remaining after 1 h, murine serum, 1 h incubation at 37 °C",> 99.8%
